{"source": "ChEMBL document CHEMBL5226280", "about": "“Non-hydroxamate inhibitors of 1-deoxy-d-xylulose 5-phosphate reductoisomerase (DXR): A critical review and future perspective” (Eur J Med Chem, 2021)", "key": {"[1]": {"target": "T1, 1-deoxy-D-xylulose 5-phosphate reductoisomerase (Escherichia coli K-12, UniProt P45568)", "T1 sequence (P45568 whole entry)": "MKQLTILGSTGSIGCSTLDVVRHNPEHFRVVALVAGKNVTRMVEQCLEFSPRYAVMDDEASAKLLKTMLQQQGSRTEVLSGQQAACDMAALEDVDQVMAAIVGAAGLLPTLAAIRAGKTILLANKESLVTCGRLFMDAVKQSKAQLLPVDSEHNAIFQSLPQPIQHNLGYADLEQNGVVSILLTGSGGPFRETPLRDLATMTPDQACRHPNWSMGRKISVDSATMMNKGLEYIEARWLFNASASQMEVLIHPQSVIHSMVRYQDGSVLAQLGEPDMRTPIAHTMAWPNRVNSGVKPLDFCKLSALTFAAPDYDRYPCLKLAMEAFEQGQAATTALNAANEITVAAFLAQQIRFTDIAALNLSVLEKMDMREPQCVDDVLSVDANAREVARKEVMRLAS", "assay": "Inhibition of Escherichia coli DXR assessed as inhibition constant pre-incubated for 2 mins in presence of NADPH by spectrophotometric assay"}, "Escherichia coli [2]": {"test_system": "Escherichia coli", "assay": "Antimicrobial activity against Escherichia coli BW25113 assessed as minimal inhibitory concentration incubated for 18 hrs by microdilution assay", "format": "functional"}, "Escherichia coli [3]": {"test_system": "Escherichia coli", "assay": "Antimicrobial activity against Escherichia coli deltaGlpT JW2234-2 assessed as minimal inhibitory concentration incubated for 18 hrs by microdilution assay", "format": "functional"}, "[4]": {"target": "T1, 1-deoxy-D-xylulose 5-phosphate reductoisomerase", "assay": "Inhibition of recombinant Escherichia coli DXR in presence of NADPH"}, "Plasmodium falciparum": {"test_system": "Plasmodium falciparum", "assay": "Antiplasmodial activity against Plasmodium falciparum K1 infected in human erythrocyte assessed as assessed as inhibition of parasite growth", "format": "functional, organism-based"}, "[5]": {"target": "T1, 1-deoxy-D-xylulose 5-phosphate reductoisomerase", "assay": "Inhibition of His-tagged Escherichia coli DXR using DXP as substrate incubated for 1 min in presence of NADPH by UV-Vis spectrophotometric assay"}}}
{"smiles": "O=C(CCCP(=O)(O)O)NO", "values": [{"measurement": "IC50", "setting": "[1]", "value": 0.17, "unit": "µM"}]}
{"smiles": "CN(O)C(=O)CCCP(=O)(O)O", "values": [{"measurement": "IC50", "setting": "[1]", "value": 0.048, "unit": "µM"}]}
{"smiles": "CN1CC(=O)OB(CCCP(=O)(O)O)OC(=O)C1", "values": [{"measurement": "MIC90", "setting": "Escherichia coli [2]", "value": 63, "unit": "µg/mL"}, {"measurement": "MIC90", "setting": "Escherichia coli [3]", "value": 52, "unit": "µg/mL"}]}
{"smiles": "CN(O)C(=O)CCCC(=O)O", "values": [{"measurement": "IC50", "setting": "[4]", "value": 25, "unit": "µM"}]}
{"smiles": "CS(=O)(=O)c1ccccc1NC(=O)CCCP(=O)(O)O", "values": [{"measurement": "IC50", "setting": "Plasmodium falciparum", "value": "> 64", "unit": "µM"}]}
{"smiles": "O=P(O)(O)CCCB(O)O", "values": [{"measurement": "IC50", "setting": "[5]", "value": 125, "unit": "µM"}, {"measurement": "MIC90", "setting": "Escherichia coli [2]", "value": 53, "unit": "µg/mL"}, {"measurement": "MIC90", "setting": "Escherichia coli [3]", "value": 37, "unit": "µg/mL"}]}
{"smiles": "CC(=O)c1ccccc1NC(=O)CCCP(=O)(O)O", "values": [{"measurement": "IC50", "setting": "Plasmodium falciparum", "value": "> 64", "unit": "µM"}]}
{"smiles": "O=C(CCCP(=O)(O)O)Nc1ccccc1F", "values": [{"measurement": "IC50", "setting": "Plasmodium falciparum", "value": "> 64", "unit": "µM"}]}
